Results reported in patent EP3138565A1, “METHOD FOR TREATING A TUMOUR DISEASE AND METHOD FOR SELECTIVELY INHIBITING TUMOUR CELL GROWTH USING A QUINOXALINE-1,4-DIOXIDE DERIVATIVE” (OOO "A-Laboratory", priority 2014, dated 2015).

Tests used:
MSF7 = assay: MTT test, antiproliferative activity; assay type: cell-based; conditions: MSF7 human solid tumor cells
Experimental: (§1) Comparative study of cytotoxicity of 6,7-difluoro-3-phenyl-2-cyanoquinoxaline 1,4-dioxide (compound 7 obtained according to a method described in the Example 1) and the previously known 6,7-nonsubstituted analogue 6 (obtained earlier by a method described by [Hu Y. etal. Molecules 2012, 17, 9683]) was performed in in vitro tests on cells of human solid tumors, as well as normal human embryo lung fibroblasts (HELF) to control selectivity. IC50 values were determined by the MTT test according to a protocol described in the literature [Mossman T.J. Immunol. Methods, 1983, 65, 55]. Table 1. Antiproliferative activity (IC50, µM) of quinoxaline 1,4-dioxides 6 and 7 with respect to human solid tumor cells and non-tumor human embryo lung fibroblasts (HELF)

[1] = test system: normal human embryo lung fibroblasts (HELF); assay: MTT test, cytotoxicity on non-tumor cells (selectivity control); assay type: cell-based; conditions: HELF; non-tumor human embryo lung fibroblasts, MTT test; read-out: IC50, µM HEFL
Experimental: as §1

K562 leukemic cells = assay: Antiproliferative activity on leukemia cells; assay type: cell-based; conditions: Homo sapiens
Experimental: (§2) Comparative study of cytotoxicity of 6,7-difluoro-3-phenyl-2-cyanoquinoxaline 1,4-dioxide (compound of formula 7), which is the subject if the present invention, was performed also on a culture of tumor […] leukemia K562 cells and its resistant subline K562/4 expressing p-glycoprotein. Expression of such ATP-dependent transporters on cell surface is one of the most common mechanisms of the multidrug resistance development in tumors [Shtil A.A., Grinchuk T.M., et. al. Int. J. Oncol., 2000, 17, 387]. Data of these studies, including the IC50 values of reference compounds, the previously described quinoxaline 1,4-dioxide of formula 6, and doxorubicin, as well as the resistance index value (RI is the ratio between the IC50 values of the K562/4 subline and IC50 of the K562 line) are presented in Table 2.

K562/4 = assay: Antiproliferative activity on multidrug-resistant subline expressing p-glycoprotein; assay type: cell-based; conditions: for IC50: Homo sapiens, K562/4 subline with multidrug resistance caused by p-gp expression; for RI, resistance index: RI = IC50(K562/4)/IC50(K562)
Experimental: as §2

HCT116 = assay: MTT test, antiproliferative activity; assay type: cell-based, human; conditions: for IC50: HCT-116, HCT116 human solid tumor cells, MTT test
Experimental: as §1

[2] = test system: human tumor cells of various genesis; assay: Apoptosis induction in tumor cells under normoxia; assay type: cell-based; conditions: submicromolar concentrations, all studied types of human tumor cells
[3] = MTT test, cytotoxicity on non-tumor cells (selectivity control); assay type: cell-based; conditions: tumor cells of different genesis vs non-tumor human fibroblasts; read-out: cytotoxicity with respect to tumor cells higher than against the non-tumor human fibroblast cells (selectivity)
Experimental: as §1

animal tumor models = assay: Antitumor effect on animal tumor models; assay type: in vivo; conditions: no data given

SMILES	IC50 (MSF7) [µM]	IC50 [1] [µM]	IC50 (K562 leukemic cells) [µM]	IC50 (K562/4) [µM]	RI, resistance index (K562/4)	IC50 (HCT116) [µM]	apoptosis induction [2]	selectivity ratio [3]	antitumor effect (animal tumor models)	activity toward K562/4 cells surpassing analogue of formula 6 (K562/4; K562/4, versus closest analogue of formula 6) [fold]	activity toward K562/4 cells surpassing doxorubicin (K562/4; K562/4, versus reference preparation doxorubicin) [fold]	resistance index (RI) lower than doxorubicin (K562/4; RI of compound versus RI of doxorubicin) [fold]	growth-inhibiting concentrations relative to the closest analogue of formula 6 (HCT116; all tested tumor cell lines)
N#Cc1c(-c2ccccc2)[n+]([O-])c2ccccc2[n+]1[O-] [Compound 6, reference compound]	15.5 ± 0.98	25.2 ± 5.1	5.2 ± 0.78	33 ± 4	6.3	8.4 ± 0.8							
COc1cccc2c1C(=O)c1c(O)c3c(c(O)c1C2=O)C[C@@](O)(C(=O)CO)C[C@@H]3O[C@H]1C[C@H](N)[C@H](O)[C@H](C)O1 [Doxorubicin, reference compound]			0.18 ± 0.03	18.4 ± 2.2	102.2								
N#Cc1c(-c2ccccc2)[n+]([O-])c2cc(F)c(F)cc2[n+]1[O-] [Compound 7, 6,7-difluoro-3-phenyl-2-cyanoquinoxaline 1,4-dioxide]	0.1 ± 0.02	44 ± 1.9	0.15 ± 0.02	0.3 ± 0.05	2.0	0.6 ± 0.03	induced apoptosis	200 to 300	reliable antitumor effect	100	~50	~50	two orders of magnitude lower
